Reference: US10647713B2 (Nimbus Lakshmi, Inc., priority 2016, dated 2020)

Target: human TYK2 (JH2domain-pseudokinase) (Homo sapiens (Human), UniProt P29597)
Assay: TYK2 JH2 Domain Binding Assay (KINOMEscan, DiscoveRx)
Conditions: 11-point dilution, duplicate
Outline: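 Kd from duplicate 11-point 3-fold dilutions starting at 30,000 nM, fitted by Hill equation with slope fixed at −1. Compounds (final 0.9% DMSO) displace DNA-tagged HEK293-expressed TYK2 JH2 fusion (<0.1 nM) from ligand-coated beads over 1 h at room temperature; eluted kinase read by qPCR.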

human TYK2 (JH2domain-pseudokinase), sequence (P29597 556-888): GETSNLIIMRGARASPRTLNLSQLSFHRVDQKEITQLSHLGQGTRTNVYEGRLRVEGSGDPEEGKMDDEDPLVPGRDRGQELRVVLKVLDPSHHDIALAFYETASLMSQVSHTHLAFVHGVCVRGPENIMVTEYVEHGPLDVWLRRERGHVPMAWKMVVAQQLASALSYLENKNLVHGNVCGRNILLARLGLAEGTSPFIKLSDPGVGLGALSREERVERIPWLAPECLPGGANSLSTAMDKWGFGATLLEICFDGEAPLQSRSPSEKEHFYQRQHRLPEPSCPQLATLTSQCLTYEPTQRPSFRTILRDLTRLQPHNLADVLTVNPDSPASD

Structure (SMILES) | Kd
COc1c(Nc2cc(NC(=O)C3CC3)nc3[nH]c(C)nc23)cccc1-n1nc(C)nc1C [I-149, N-(7-((3-(3,5-dimethyl-1H-1,2,4-triazol-1-yl)-2-methoxyphenyl)amino)-2-methyl-3H-imidazo[4,5-b]pyridin-5-yl)cyclopropanecarboxamide] | > 10000 pM
COCc1ccc(Nc2cc(NC(=O)C3CC3)nc3[nH]c(C)nc23)c(N(C)S(C)(=O)=O)c1 [I-150, N-(7-((4-(methoxymethyl)-2-(N-methylmethylsulfonamido)phenyl)amino)-2-methyl-3H-imidazo[4,5-b]pyridin-5-yl)cyclopropanecarboxamide] | 100 to 500 pM
COc1cc(-c2cncn2C)ccc1Nc1cc(NC(=O)C2CC2)nc2[nH]c(C)nc12 [I-151, N-(7-((2-methoxy-4-(1-methyl-1H-imidazol-5-yl)phenyl)amino)-2-methyl-3H-imidazo[4,5-b]pyridin-5-yl)cyclopropanecarboxamide] | 1000 to 10000 pM
COc1cc(-c2cncn2C)ccc1Nc1cc(Nc2cnc(C)c(C)n2)nc2[nH]c(C)nc12 [I-152, N5-(5,6-dimethylpyrazin-2-yl)-N7-(2-methoxy-4-(1-methyl-1H-imidazol-5-yl)phenyl)-2-methyl-3H-imidazo[4,5-b]pyridine-5,7-diamine] | 1000 to 10000 pM
Cc1nc2c(Nc3ccc(-c4cncn4C)cc3N(C)S(C)(=O)=O)cc(NC(=O)C3CC3)nc2[nH]1 [I-153, N-(2-methyl-7-((4-(1-methyl-1H-imidazol-5-yl)-2-(N-methylmethylsulfonamido)phenyl)amino)-3H-imidazo[4,5-b]pyridin-5-yl)cyclopropanecarboxamide] | 100 to 500 pM
Cc1ncc(Nc2cc(Nc3ccc(-c4cncn4C)cc3N(C)S(C)(=O)=O)c3nc(C(F)F)[nH]c3n2)nc1C [I-154, N-(2-((2-(difluoromethyl)-5-((5,6-dimethylpyrazin-2-yl)amino)-3H-imidazo[4,5-b]pyridin-7-yl)amino)-5-(1-methyl-1H-imidazol-5-yl)phenyl)-N-methylmethanesulfonamide] | 100 to 500 pM
COc1c(Nc2cc(NC(=O)C3CC3)nc3[nH]c(C(F)F)nc23)cccc1-c1nnn(C)c1C [I-155, N-(2-(difluoromethyl)-7-((3-(1,5-dimethyl-1H-1,2,3-triazol-4-yl)-2-methoxyphenyl)amino)-3H-imidazo[4,5-b]pyridin-5-yl)cyclopropanecarboxamide] | 1000 to 10000 pM
Cc1nc2c(Nc3ccc(-c4cn(C)cn4)cc3N(C)S(C)(=O)=O)cc(NC(=O)C3CC3)nc2[nH]1 [I-156, N-(2-methyl-7-((4-(1-methyl-1H-imidazol-4-yl)-2-(N-methylmethylsulfonamido)phenyl)amino)-3H-imidazo[4,5-b]pyridin-5-yl)cyclopropanecarboxamide] | 100 to 500 pM
COc1c(Nc2cc(NC(=O)C3CC3)nc3[nH]c(C)nc23)cccc1-c1c(C)nnn1C [I-157, N-(7-((3-(1,4-dimethyl-1H-1,2,3-triazol-5-yl)-2-methoxyphenyl)amino)-2-methyl-3H-imidazo[4,5-b]pyridin-5-yl)cyclopropanecarboxamide] | 1000 to 10000 pM
COc1c(Nc2cc(NC(=O)C3CC3)nc3[nH]c(C)nc23)cccc1-c1nnn(C)c1C [I-158, N-(7-((3-(1,5-dimethyl-1H-1,2,3-triazol-4-yl)-2-methoxyphenyl)amino)-2-methyl-3H-imidazo[4,5-b]pyridin-5-yl)cyclopropanecarboxamide] | > 10000 pM
CS(=O)(=O)c1ccccc1Nc1cc(NC(=O)C2CC2)nc2[nH]c(C(F)F)nc12 [I-159] | 100 to 500 pM
COc1cc(-c2cncn2C)ccc1Nc1cc(Nc2cccc(C#N)n2)nc2[nH]c(C)nc12 [I-160, 6-((7-((2-methoxy-4-(1-methyl-1H-imidazol-5-yl)phenyl)amino)-2-methyl-3H-imidazo[4,5-b]pyridin-5-yl)amino)picolinonitrile] | 1000 to 10000 pM
COc1cc(-c2nc(C)nn2C)ccc1Nc1cc(NC(=O)C2CC2)nc2[nH]c(C(F)F)nc12 [I-161, N-(2-(difluoromethyl)-7-((4-(1,3-dimethyl-1H-1,2,4-triazol-5-yl)-2-methoxyphenyl)amino)-3H-imidazo[4,5-b]pyridin-5-yl)cyclopropanecarboxamide] | 1000 to 10000 pM
COc1c(Nc2cc(NC(=O)C3CC3)nc3[nH]c(C)nc23)cccc1-n1ncnc1C [I-162, N-(7-((2-methoxy-3-(5-methyl-1H-1,2,4-triazol-1-yl)phenyl)amino)-2-methyl-3H-imidazo[4,5-b]pyridin-5-yl)cyclopropanecarboxamide] | > 10000 pM
COc1cc(-c2nc(C)nn2C)ccc1Nc1cc(NC(=O)C2CC2)nc2[nH]c(C)nc12 [I-163, N-(7-((4-(1,3-dimethyl-1H-1,2,4-triazol-5-yl)-2-methoxyphenyl)amino)-2-methyl-3H-imidazo[4,5-b]pyridin-5-yl)cyclopropanecarboxamide] | 500 to 1000 pM
Cc1nc(-c2ccc(Nc3cc(NC(=O)C4CC4)nc4[nH]c(C(F)F)nc34)c(N(C)S(C)(=O)=O)c2)n(C)n1 [I-164, N-(2-(difluoromethyl)-7-((4-(1,3-dimethyl-1H-1,2,4-triazol-5-yl)-2-(N-methylmethylsulfonamido)phenyl)amino)-3H-imidazo[4,5-b]pyridin-5-yl)cyclopropanecarboxamide] | 100 to 500 pM
Cc1nc(-c2ccc(Nc3cc(NC(=O)C4CC4)nc4[nH]c(C)nc34)c(N(C)S(C)(=O)=O)c2)n(C)n1 [I-165, N-(7-((4-(1,3-dimethyl-1H-1,2,4-triazol-5-yl)-2-(N-methylmethylsulfonamido)phenyl)amino)-2-methyl-3H-imidazo[4,5-b]pyridin-5-yl)cyclopropanecarboxamide] | > 10000 pM
Cc1nc(-c2ccc(Nc3cc(Nc4cnc(C)c(C)n4)nc4[nH]c(C(F)F)nc34)c(N(C)S(C)(=O)=O)c2)n(C)n1 [I-166, N-(2-((2-(difluoromethyl)-5-((5,6-dimethylpyrazin-2-yl)amino)-3H-imidazo[4,5-b]pyridin-7-yl)amino)-5-(1,3-dimethyl-1H-1,2,4-triazol-5-yl)phenyl)-N-methyl-methanesulfonamide] | 100 to 500 pM
COc1c(Nc2cc(Nc3cc(F)c(N4CC(OC)C4)cn3)nc3[nH]c(C(F)F)nc23)cccc1-c1nc(C)nn1C [I-167, 2-(difluoromethyl)-N7-(3-(1,3-dimethyl-1H-1,2,4-triazol-5-yl)-2-methoxyphenyl)-N5-(4-fluoro-5-(3-methoxyazetidin-1-yl)pyridin-2-yl)-3H-imidazo[4,5-b]pyridine-5,7-diamine] | > 10000 pM
COc1c(Nc2cc(Nc3cc(F)c(N4CC(OC)C4)cn3)nc3[nH]c(C)nc23)cccc1-c1nc(C)nn1C [I-168, N7-(3-(1,3-dimethyl-1H-1,2,4-triazol-5-yl)-2-methoxyphenyl)-N5-(4-fluoro-5-(3-methoxyazetidin-1-yl)pyridin-2-yl)-2-methyl-3H-imidazo[4,5-b]pyridine-5,7-diamine] | > 10000 pM
Cc1cnc(-c2ccc(Nc3cc(NC(=O)C4CC4)nc4[nH]c(C(F)F)nc34)c(N(C)S(C)(=O)=O)c2)n1C [I-169, N-(2-(difluoromethyl)-7-((4-(1,5-dimethyl-1H-imidazol-2-yl)-2-(N-methylmethylsulfonamido)phenyl)amino)-3H-imidazo[4,5-b]pyridin-5-yl)cyclopropanecarboxamide] | 100 to 500 pM
Cc1nc2c(Nc3ccc(-c4ncc(C)n4C)cc3N(C)S(C)(=O)=O)cc(NC(=O)C3CC3)nc2[nH]1 [I-170, N-(7-((4-(1,5-dimethyl-1H-imidazol-2-yl)-2-(N-methylmethyl-sulfonamido)phenyl)amino)-2-methyl-3H-imidazo[4,5-b]pyridin-5-yl)cyclopropanecarboxamide] | 100 to 500 pM
CN(c1cc(-c2ccn(C)n2)ccc1Nc1cc(NC(=O)C2CC2)nc2[nH]c(C(F)F)nc12)S(C)(=O)=O [I-171, N-(2-(difluoromethyl)-7-((4-(1-methyl-1H-pyrazol-3-yl)-2-(N-methylmethylsulfonamido)phenyl)amino)-3H-imidazo[4,5-b]pyridin-5-yl)cyclopropaneCarboxamide] | 100 to 500 pM
COc1c(Nc2cc(NC(=O)C3CC3)nc3[nH]c(C(F)(F)F)nc23)cccc1-c1nnn(C)n1 [I-172, N-(7-((2-methoxy-3-(2-methyl-2H-tetrazol-5-yl)phenyl)amino)-2-(trifluoromethyl)-3H-imidazo[4,5-b]pyridin-5-yl)cyclopropanecarboxamide] | > 10000 pM
Cc1nc(-c2ccc(Nc3cc(Nc4cnc(C)c(C)n4)nc4[nH]c(C)nc34)c(N(C)S(C)(=O)=O)c2)n(C)n1 [I-173, N-(5-(1,3-dimethyl-1H-1,2,4-triazol-5-yl)-2-((5-((5,6-dimethylpyrazin-2-yl)amino)-2-methyl-3H-imidazo[4,5-b]pyridin-7-yl)amino)phenyl)-N-methylmethanesulfonamide] | > 10000 pM
Cc1nc2c(Nc3ccc(-c4ccn(C)n4)cc3N(C)S(C)(=O)=O)cc(NC(=O)C3CC3)nc2[nH]1 [I-174, N-(2-methyl-7-((4-(1-methyl-1H-pyrazol-3-yl)-2-(N-methyl-methysulfonamido)phenyl)amino)-3H-imidazo[4,5-b]pyridin-5-yl)cyclopropanecarboxamide] | 100 to 500 pM
Cc1cn(C)c(-c2ccc(Nc3cc(NC(=O)C4CC4)nc4[nH]c(C(F)F)nc34)c(N(C)S(C)(=O)=O)c2)n1 [I-175, N-(2-(difluoromethyl)-7-((4-(1,4-dimethyl-1H-imidazol-2-yl)-2-(N-methylmethylsulfonamido)phenyl)amino)-3H-imidazo[4,5-b]pyridin-5-yl)cyclopropane-Carboxamide] | 500 to 1000 pM
Cc1cn(C)c(-c2ccc(Nc3cc(NC(=O)C4CC4)nc4[nH]c(C)nc34)c(N(C)S(C)(=O)=O)c2)n1 [I-176, N-(7-((4-(1,4-dimethyl-1H-imidazol-2-yl)-2-(N-methylmethyl-sulfonamido)phenyl)amino)-2-methyl-3H-imidazo[4,5-b]pyridin-5-yl)cyclopropane-carboxamide] | 500 to 1000 pM
Cc1nc2c(Nc3ccccc3S(C)(=O)=O)cc(NC(=O)C3CC3)nc2[nH]1 [I-177, N-(2-methyl-7-((2-(methylsulfonyl)phenyl)amino)-3H-imidazo[4,5-b]pyridin-5-yl)cyclopropanecarboxamide] | 100 to 500 pM
